Laboratory results: ChEMBL document CHEMBL3044669, “Molecular modeling, structure activity relationship and immunomodulatory properties of some lupeol derivatives” (Med Chem Res, 2013)
In brackets after ≈: the same amount, converted by molar mass.

What was measured:
[1] = test system: Neutrophil; experiment: Immunomodulatory activity in neutrophils assessed as decrease in oxidative burst after 30 min by luminol-enhanced chemiluminescence assay; type: functional, cell-based; conditions: for IC50: 0.5 h
[2] = test system: PBL; experiment: Antiproliferative activity against PHA-induced Homo sapiens (human) peripheral blood lymphocytes assessed as inhibition of [3H]-thymidine incorporation after 72 hr by beta-scintillation counting analysis; type: functional, cell-based
[3] = test system: PBL; experiment: Stimulation of PHA-induced Homo sapiens (human) peripheral blood lymphocytes proliferation assessed as increase in [3H]-thymidine incorporation at 50 ug/ml after 72 hr by beta-scintillation counting analysis relative to control; type: functional
[4] = test system: Neutrophil; experiment: Immunomodulatory activity in neutrophils assessed as decrease in oxidative burst at 50 ug/mL after 30 min by luminol-enhanced chemiluminescence assay relative to control; type: functional; set-up: scale not given: the % may be the effect or the level left
[5] = test system: PBL; experiment: Antiproliferative activity against PHA-induced Homo sapiens (human) peripheral blood lymphocytes assessed as inhibition of [3H]-thymidine incorporation at 50 ug/ml after 72 hr by beta-scintillation counting analysis relative to control; type: functional

Question: Which Activity [1] does the source give for C=C(C)[C@@H]1CC[C@]2(C)CC[C@]3(C)[C@H](CC[C@@H]4[C@@]5(C)CC[C@H](O)C(C)(C)[C@@H]5CC[C@]43C)[C@@H]12 [LUPEOL] here?
Answer: Dose-dependent effect

Question: What about the IC50 [1] of the same molecule?
Answer: 11.3 µg/mL

Question: What about the IC50 [2] of the same molecule?
Answer: 13.2 µg/mL (≈ 30.8 µM)

Question: What about the inhibition [2] of the same molecule?
Answer: Dose-dependent effect

Question: What does the source list for C=C(C)[C@@H]1CC[C@]2(C(=O)O)CC[C@]3(C)[C@H](CC[C@@H]4[C@@]5(C)CC[C@H](O)C(C)(C)[C@@H]5CC[C@]43C)[C@@H]12 [BETULINIC ACID]?
Answer: Activity [1]: Dose-dependent effect; IC50 [1]: 11.1 µg/mL; Activity [3]: 38.2%

Question: C=C(C)[C@@H]1CC[C@]2(C)CC[C@]3(C)[C@H](CC[C@@H]4[C@@]5(C)CC[C@H](OC(C)=O)C(C)(C)[C@@H]5CC[C@]43C)[C@@H]12 [LUPENYL ACETATE] was tested. Which Activity [4] did it give?
Answer: 41.12%

Question: And the inhibition at 50 µg/mL [5]?
Answer: 38.9%

Question: For C=C(C)[C@@H]1CC[C@]2(C(=O)OCC)CC[C@]3(C)[C@H](CC[C@@H]4[C@@]5(C)CC[C@H](O)C(C)(C)[C@@H]5CC[C@]43C)[C@@H]12 [ETHYL BETULINATE], which IC50 [1] is on record?
Answer: 3.85 µg/mL

Question: What about the IC50 [2] of the same molecule?
Answer: 12.9 µg/mL (≈ 26.6 µM)
